Results from PubChem BioAssay AID1963438 (Molecular Pharmacology Branch, DTP, NCI, 2024).

System: NCI-H510 multicellular tumor spheroid growth, % test/control
Test: Anticancer human tumor NCI-H510 cell line growth inhibition [Asc];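 note: spheroids exposed to agents for 7 days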;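 for viability, T/C: 100% = DMSO vehicle control wells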
Settings: for IC50: curve of first compound; for viability, T/C: stronger effect = lower value
Method in brief: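 Tumor cells were grown as complex spheroids with human endothelial cells (HUVEC) and human mesenchymal stem cells as stroma. Agents were tested alone and in combination, in half-log steps down from the clinical Cmax, or from 10 microM where Cmax was unknown.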

[1] = second compound 0.1 µM, first compound 0.00316 µM
[2] = second compound 0.1 µM, first compound 0.01 µM
[3] = second compound 0.1 µM, first compound 0.0316 µM
[4] = second compound 0.1 µM, first compound 0.1 µM
[5] = second compound 0.1 µM, first compound 0.316 µM
[6] = second compound 0.1 µM, first compound 1 µM
[7] = second compound 0.316 µM, first compound 0.00316 µM
[8] = second compound 0.316 µM, first compound 0.01 µM
[9] = second compound 0.316 µM, first compound 0.0316 µM
[10] = second compound 0.316 µM, first compound 0.1 µM
[11] = second compound 0.316 µM, first compound 0.316 µM
[12] = second compound 0.316 µM, first compound 1 µM
[13] = second compound 1 µM, first compound 0.00316 µM
[14] = second compound 1 µM, first compound 0.01 µM
[15] = second compound 1 µM, first compound 0.0316 µM
[16] = second compound 1 µM, first compound 0.1 µM
[17] = second compound 1 µM, first compound 0.316 µM
[18] = second compound 1 µM, first compound 1 µM
[19] = second compound 3.16 µM, first compound 0.0316 µM
[20] = second compound 3.16 µM, first compound 0.1 µM
[21] = second compound 3.16 µM, first compound 0.316 µM
[22] = second compound 3.16 µM, first compound 1 µM
[23] = second compound 10 µM, first compound 0.0316 µM
[24] = second compound 10 µM, first compound 0.1 µM
[25] = second compound 10 µM, first compound 0.316 µM
[26] = second compound 10 µM, first compound 1 µM

## Cc1nc(N2CCC3(CC2)COC(C)C3N)c(CO)nc1Sc1ccnc(N)c1Cl (configuration not stated) + CNC(C)C(=O)NC1CN(S(=O)(=O)c2cccc(S(=O)(=O)N3CCC4CCC(C(=O)NC(c5ccccc5)c5ccccc5)N4C(=O)C(NC(=O)C(C)NC)C3)c2)CCC2CCC(C(=O)NC(c3ccccc3)c3ccccc3)N2C1=O
Second compound 0.00316 µM
  IC50: > 3000 nM
Second compound 0.01 µM
  IC50: > 3000 nM
Second compound 0.0316 µM
  IC50: > 3000 nM
Second compound 0.1 µM
  IC50: > 3000 nM
Second compound 0.316 µM
  IC50: > 3000 nM
Second compound 1 µM
  IC50: > 3000 nM
Second compound 0.00316 µM, first compound 0.00949 µM
  viability, T/C: 103%
Second compound 0.00316 µM, first compound 0.03 µM
  viability, T/C: 95.3%
Second compound 0.00316 µM, first compound 0.0949 µM
  viability, T/C: 104%
Second compound 0.00316 µM, first compound 0.3 µM
  viability, T/C: 89%
Second compound 0.00316 µM, first compound 0.949 µM
  viability, T/C: 98.5%
Second compound 0.00316 µM, first compound 3 µM
  viability, T/C: 106%
Second compound 0.01 µM, first compound 0.00949 µM
  viability, T/C: 102%
Second compound 0.01 µM, first compound 0.03 µM
  viability, T/C: 108%
Second compound 0.01 µM, first compound 0.0949 µM
  viability, T/C: 99.9%
Second compound 0.01 µM, first compound 0.3 µM
  viability, T/C: 105%
Second compound 0.01 µM, first compound 0.949 µM
  viability, T/C: 93.9%
Second compound 0.01 µM, first compound 3 µM
  viability, T/C: 102%
Second compound 0.0316 µM, first compound 0.00949 µM
  viability, T/C: 97.9%
Second compound 0.0316 µM, first compound 0.03 µM
  viability, T/C: 88.3%
Second compound 0.0316 µM, first compound 0.0949 µM
  viability, T/C: 95.9%
Second compound 0.0316 µM, first compound 0.3 µM
  viability, T/C: 99.8%
Second compound 0.0316 µM, first compound 0.949 µM
  viability, T/C: 94.7%
Second compound 0.0316 µM, first compound 3 µM
  viability, T/C: 111%
Second compound 0.1 µM, first compound 0.00949 µM
  viability, T/C: 99.3%
Second compound 0.1 µM, first compound 0.03 µM
  viability, T/C: 99.2%
Second compound 0.1 µM, first compound 0.0949 µM
  viability, T/C: 109%
Second compound 0.1 µM, first compound 0.3 µM
  viability, T/C: 88.1%
Second compound 0.1 µM, first compound 0.949 µM
  viability, T/C: 99.5%
Second compound 0.1 µM, first compound 3 µM
  viability, T/C: 106%
Second compound 0.316 µM, first compound 0.00949 µM
  viability, T/C: 91.8%
Second compound 0.316 µM, first compound 0.03 µM
  viability, T/C: 117%
Second compound 0.316 µM, first compound 0.0949 µM
  viability, T/C: 94.9%
Second compound 0.316 µM, first compound 0.3 µM
  viability, T/C: 98.5%
Second compound 0.316 µM, first compound 0.949 µM
  viability, T/C: 94.7%
Second compound 0.316 µM, first compound 3 µM
  viability, T/C: 95%
Second compound 1 µM, first compound 0.00949 µM
  viability, T/C: 106%
Second compound 1 µM, first compound 0.03 µM
  viability, T/C: 91.1%
Second compound 1 µM, first compound 0.0949 µM
  viability, T/C: 104%
Second compound 1 µM, first compound 0.3 µM
  viability, T/C: 94.3%
Second compound 1 µM, first compound 0.949 µM
  viability, T/C: 90.6%
Second compound 1 µM, first compound 3 µM
  viability, T/C: 100%

## CCN1CCN(Cc2ccc(Nc3ncc(F)c(-c4cc(F)c5nc(C)n(C(C)C)c5c4)n3)nc2)CC1 + CNC(C)C(=O)NC1CN(S(=O)(=O)c2cccc(S(=O)(=O)N3CCC4CCC(C(=O)NC(c5ccccc5)c5ccccc5)N4C(=O)C(NC(=O)C(C)NC)C3)c2)CCC2CCC(C(=O)NC(c3ccccc3)c3ccccc3)N2C1=O
Second compound 0.01 µM
  IC50: > 1000 nM
Second compound 0.0316 µM
  IC50: > 1000 nM
Second compound 0.1 µM
  IC50: > 1000 nM
Second compound 0.316 µM
  IC50: > 1000 nM
Second compound 1 µM
  IC50: > 1000 nM
Second compound 0.01 µM, first compound 0.00316 µM
  viability, T/C: 109%
Second compound 0.01 µM, first compound 0.01 µM
  viability, T/C: 117%
Second compound 0.01 µM, first compound 0.0316 µM
  viability, T/C: 124%
Second compound 0.01 µM, first compound 0.1 µM
  viability, T/C: 112%
Second compound 0.01 µM, first compound 0.316 µM
  viability, T/C: 150%
Second compound 0.01 µM, first compound 1 µM
  viability, T/C: 128%
Second compound 0.0316 µM, first compound 0.00316 µM
  viability, T/C: 108%
Second compound 0.0316 µM, first compound 0.01 µM
  viability, T/C: 94%
Second compound 0.0316 µM, first compound 0.0316 µM
  viability, T/C: 114%
Second compound 0.0316 µM, first compound 0.1 µM
  viability, T/C: 113%
Second compound 0.0316 µM, first compound 0.316 µM
  viability, T/C: 117%
Second compound 0.0316 µM, first compound 1 µM
  viability, T/C: 136%
[1]
  viability, T/C: 113%
[2]
  viability, T/C: 95.5%
[3]
  viability, T/C: 99.3%
[4]
  viability, T/C: 108%
[5]
  viability, T/C: 108%
[6]
  viability, T/C: 117%
[7]
  viability, T/C: 114%
[8]
  viability, T/C: 117%
[9]
  viability, T/C: 110%
[10]
  viability, T/C: 115%
[11]
  viability, T/C: 107%
[12]
  viability, T/C: 128%
[13]
  viability, T/C: 111%
[14]
  viability, T/C: 112%
[15]
  viability, T/C: 107%
[16]
  viability, T/C: 115%
[17]
  viability, T/C: 123%
[18]
  viability, T/C: 127%

## COc1c(OCCCN2CCOCC2)ccc2c3n(c(=NC(=O)c4cnc(N)nc4)nc12)CCN3 + Cc1c(S(C)(=O)=O)c(-c2cc(F)cc(N3CCN(c4ccc(NS(=O)(=O)c5ccc(NC(CCN6CCC(C(=O)OCCCP(=O)(O)O)CC6)CSc6ccccc6)c(S(=O)(=O)C(F)(F)F)c5)cc4)CC3)c2)c(-c2ccc(Cl)cc2)n1C(C)C
Second compound 0.1 µM
  IC50: > 1000 nM
Second compound 0.316 µM
  IC50: > 1000 nM
Second compound 1 µM
  IC50: > 1000 nM
Second compound 3.16 µM
  IC50: > 1000 nM
Second compound 10 µM
  IC50: 231 nM
[1]
  viability, T/C: 112%
[2]
  viability, T/C: 106%
[3]
  viability, T/C: 88.9%
[4]
  viability, T/C: 89.3%
[5]
  viability, T/C: 96.4%
[6]
  viability, T/C: 84.3%
[7]
  viability, T/C: 102%
[8]
  viability, T/C: 99.6%
[9]
  viability, T/C: 70.3%
[10]
  viability, T/C: 75%
[11]
  viability, T/C: 89.1%
[12]
  viability, T/C: 53.6%
[13]
  viability, T/C: 99.8%
[14]
  viability, T/C: 98.1%
[15]
  viability, T/C: 106%
[16]
  viability, T/C: 91.2%
[17]
  viability, T/C: 67.5%
[18]
  viability, T/C: 86.1%
Second compound 3.16 µM, first compound 0.00316 µM
  viability, T/C: 89.4%
Second compound 3.16 µM, first compound 0.01 µM
  viability, T/C: 91.6%
[19]
  viability, T/C: 82.6%
[20]
  viability, T/C: 80%
[21]
  viability, T/C: 82.6%
[22]
  viability, T/C: 63.8%
Second compound 10 µM, first compound 0.00316 µM
  viability, T/C: 66%
Second compound 10 µM, first compound 0.01 µM
  viability, T/C: 98.4%
[23]
  viability, T/C: 70.9%
[24]
  viability, T/C: 96.3%
[25]
  viability, T/C: 37.6%
[26]
  viability, T/C: 32.2%

## O=C(c1cc(Cc2n[nH]c(=O)c3ccccc23)ccc1F)N1CCN(C(=O)C2CC2)CC1 + Cc1c(S(C)(=O)=O)c(-c2cc(F)cc(N3CCN(c4ccc(NS(=O)(=O)c5ccc(NC(CCN6CCC(C(=O)OCCCP(=O)(O)O)CC6)CSc6ccccc6)c(S(=O)(=O)C(F)(F)F)c5)cc4)CC3)c2)c(-c2ccc(Cl)cc2)n1C(C)C
Second compound 0.1 µM
  IC50: 1610 nM
Second compound 0.316 µM
  IC50: 1520 nM
Second compound 1 µM
  IC50: 1490 nM
Second compound 3.16 µM
  IC50: 1160 nM
Second compound 10 µM
  IC50: 1320 nM
[3]
  viability, T/C: 94.8%
[4]
  viability, T/C: 101%
[5]
  viability, T/C: 107%
[6]
  viability, T/C: 74.1%
Second compound 0.1 µM, first compound 3.16 µM
  viability, T/C: 13.4%
Second compound 0.1 µM, first compound 10 µM
  viability, T/C: 18.7%
[9]
  viability, T/C: 124%
[10]
  viability, T/C: 89.1%
[11]
  viability, T/C: 106%
[12]
  viability, T/C: 73.5%
Second compound 0.316 µM, first compound 3.16 µM
  viability, T/C: 8.58%
Second compound 0.316 µM, first compound 10 µM
  viability, T/C: 3.25%
[15]
  viability, T/C: 94.8%
[16]
  viability, T/C: 112%
[17]
  viability, T/C: 93.2%
[18]
  viability, T/C: 69.5%
Second compound 1 µM, first compound 3.16 µM
  viability, T/C: 14.3%
Second compound 1 µM, first compound 10 µM
  viability, T/C: 3.96%
[19]
  viability, T/C: 111%
[20]
  viability, T/C: 121%
[21]
  viability, T/C: 87.1%
[22]
  viability, T/C: 63.3%
Second compound 3.16 µM, first compound 3.16 µM
  viability, T/C: 4.95%
Second compound 3.16 µM, first compound 10 µM
  viability, T/C: 3.34%
[23]
  viability, T/C: 81.6%
[24]
  viability, T/C: 94.5%
[25]
  viability, T/C: 81.5%
[26]
  viability, T/C: 65.2%
Second compound 10 µM, first compound 3.16 µM
  viability, T/C: 1.71%
Second compound 10 µM, first compound 10 µM
  viability, T/C: 1.74%
